System: microvascular endothelium (skin, right arm, anterior position) of Congestive Heart Failure patients
Experiment: Skin colorimetry (a, b, L) before and after application of “μ” in Congestive Heart Failure patients on Valsartan, monthly for 9 months
Type: in vivo, human
Set-up: key to a. Wet after “μ”: a = red/green colour coordinate (colorimeter); key to b (Wet): b = yellow/blue colour coordinate (colorimeter)
Details: for L / a / b: baseline before μ; for L (Wet) / a. Wet after “μ” / b (Wet): wet after μ
Source text: As stated above, one available quantitative color system is the L*a*b* color space or Hunter L/a/b color space, which can be visualized as a rectangular 3D coordinate system. L indicates lightness, a is the red/green coordinate, and b is the yellow/blue coordinate. L can have a value from 0 (black) to 100 (perfect reflection). The a and b axes have no numerical limits. Coordinate a is positive when red, and negative when green. Positive b is yellow, and negative b is blue. Colors can be described numerically using numerical values for L, a, and b. Differences between two colors can be quantified for each of the individual L/a/b values (ΔL, Δa, Δb). Overall differences between two colors can be derived numerically based on the three Δ values.
μ=drug applied before colorimeter and/or spectrophotometer measurements.
L1, a1, b1=Initial measurement.
L2, a2, b2=Measurement with μ applied. L2−L1=ΔLμ(L2 minus L1)=change in lightness and darkness(+=lighter,−=darker) a2−a1=Δaμ(a2 minus a1)=change in red and green(+=redder,−=greener) b2−b1=Δbμ(b2 minus b1)=change in yellow and blue(+=yellower,−=bluer)
With reference to the tables below and to FIG. 18, the three different patients (Patient A, Patient B, and Patient C) had new diagnosis of Congestive Heart Failure (CHF). Patient A, B, C have diastolic and systolic heart failure with an ejection fraction of 35% with normal coronary artery disease by angiography. All three patients were started on an angiotensin receptor blocker Valsartan and followed continuously every month for 9 months. The a, b, L were calculated before and after the “μ” has been applied shown in color red. The blue indicates the baseline. At the initiation of the CHF medication Valsartan, the patient has a normal response of the microvascular endothelium after the application of “μ” in the calculations of a, b, L. All colorimetric and spectrophotometric calculations are performed at the same location on the right arm, in the anterior position in all three patients continuously for 9 months. The titration of Valsartan was maximized in all three patients. […] This occurs because it is the desired effect of the CHF medication in the above patients over the period of 9 months. The current standard of care is to improve the heart function in CHF. The cardiologist lowers the ionotropic and chronotropic effect of the heart in CHF patients. The above methodology allows for the appropriate and desired effect in being able to titrate the medication and know how much medicine to administer to the patient by either decreasing or increasing the Valsartan dose. This is performed to achieve the necessary effect of pharmacotherapy with limiting the exacerbation of heart failure symptoms in such patients. It allows for healthcare providers to also know if the effects of the medications are adequate and they are in fact working appropriately on the microscopic endothelium level of the patient. As the months progressed in the patients above, the red line calculations indicate a decreased microvascular endothelial flow. This is evaluated by measuring a decrease in the a shift.
This correlates with a decrease in the ionotropic and chronotropic effect of the heart in these patients. This is the desired effect and outcome that the cardiologist is trying to achieve. The calculation of a, b, L, after “μ” is applied is objectively calculated in these CHF patients, allowing for the proper titration of maximum medication administration while limiting the side effects of the medications concurrently.

In the case of CCCCC(=O)N(Cc1ccc(-c2ccccc2-c2nnn[nH]2)cc1)[C@H](C(=O)O)C(C)C [Valsartan], the L (Patient A, April 2017) is reported as 70.87, the a (Patient A, April 2017) is reported as 5.05 and the b (Patient A, April 2017) is reported as 16.72. For the same compound, the L (Patient A, December 2016) was 70.63, the a (Patient A, December 2016) was 5.20 and the b (Patient A, December 2016) was 16.61. It also gave an L (Patient A, February 2017) of 70.24, an a (Patient A, February 2017) of 5.12 and a b (Patient A, February 2017) of 15.42. The L (Patient A, January 2017) was 71.68, the a (Patient A, January 2017) was 4.70 and the b (Patient A, January 2017) was 14.67. For the same compound, the L (Patient A, July 2017) was 71.63, the a (Patient A, July 2017) was 5.48 and the b (Patient A, July 2017) was 14.62. The L (Patient A, June 2017) was 69.91, the a (Patient A, June 2017) was 5.02 and the b (Patient A, June 2017) was 15.64. For the same compound, the L (Patient A, March 2017) was 70.42, the a (Patient A, March 2017) was 5.14 and the b (Patient A, March 2017) was 16.14. For the same compound, the L (Patient A, May 2017) was 71.99, the a (Patient A, May 2017) was 4.98 and the b (Patient A, May 2017) was 15.47. The L (Patient A, November 2016) was 70.10, the a (Patient A, November 2016) was 5.59 and the b (Patient A, November 2016) was 15.39. For the same compound, the “L (Wet)” value (Patient A, April 2017) was 70.72, the “a. Wet after “μ”” value (Patient A, April 2017) was 4.54 and the “b (Wet)” value (Patient A, April 2017) was 16.78. For the same compound, the “L (Wet)” value (Patient A, December 2016) was 69.98, the “a. Wet after “μ”” value (Patient A, December 2016) was 6.35 and the “b (Wet)” value (Patient A, December 2016) was 16.81. For the same compound, the “L (Wet)” value (Patient A, February 2017) was 70.12, the “a. Wet after “μ”” value (Patient A, February 2017) was 6.08 and the “b (Wet)” value (Patient A, February 2017) was 16.44. The “L (Wet)” value (Patient A, January 2017) was 71.76, the “a. Wet after “μ”” value (Patient A, January 2017) was 6.48 and the “b (Wet)” value (Patient A, January 2017) was 16.48. The “L (Wet)” value (Patient A, July 2017) was 70.04, the “a. Wet after “μ”” value (Patient A, July 2017) was 4.46 and the “b (Wet)” value (Patient A, July 2017) was 16.31. For the same compound, the “L (Wet)” value (Patient A, June 2017) was 70.54, the “a. Wet after “μ”” value (Patient A, June 2017) was 4.43 and the “b (Wet)” value (Patient A, June 2017) was 15.89. The “L (Wet)” value (Patient A, March 2017) was 69.42, the “a. Wet after “μ”” value (Patient A, March 2017) was 4.64 and the “b (Wet)” value (Patient A, March 2017) was 16.85. For the same compound, the “L (Wet)” value (Patient A, May 2017) was 69.79, the “a. Wet after “μ”” value (Patient A, May 2017) was 4.20 and the “b (Wet)” value (Patient A, May 2017) was 15.62. The “L (Wet)” value (Patient A, November 2016) was 68.40, the “a. Wet after “μ”” value (Patient A, November 2016) was 7.06 and the “b (Wet)” value (Patient A, November 2016) was 16.16. The L (Patient B, April 2017) was 73.95, the a (Patient B, April 2017) was 3.25 and the b (Patient B, April 2017) was 15.34. For the same compound, the L (Patient B, December 2016) was 72.77, the a (Patient B, December 2016) was 3.36 and the b (Patient B, December 2016) was 4.88. It also gave an L (Patient B, February 2017) of 74.52, an a (Patient B, February 2017) of 3.06 and a b (Patient B, February 2017) of 13.98. The L (Patient B, January 2017) was 74.06, the a (Patient B, January 2017) was 2.66 and the b (Patient B, January 2017) was 15.09. For the same compound, the L (Patient B, July 2017) was 74.23, the a (Patient B, July 2017) was 4.20 and the b (Patient B, July 2017) was 14.14. For the same compound, the L (Patient B, June 2017) was 74.05, the a (Patient B, June 2017) was 3.85 and the b (Patient B, June 2017) was 14.35. The L (Patient B, March 2017) was 74.43, the a (Patient B, March 2017) was 3.09 and the b (Patient B, March 2017) was 14.08. It also gave an L (Patient B, May 2017) of 73.52, an a (Patient B, May 2017) of 3.40 and a b (Patient B, May 2017) of 15.02. It also gave an L (Patient B, November 2016) of 73.44, an a (Patient B, November 2016) of 4.15 and a b (Patient B, November 2016) of 13.69.
